In one experiment the target is hNav1.7 (Homo sapiens (Human), UniProt Q15858). Description: Ligand binding assay: tritiated sulfonamide binding to membranes from cells expressing hNav1.7 and the β1 subunit.
The next experiment addresses NaV1.7 (Homo sapiens (Human), UniProt Q15858). Description: Electrophysiological assay (EP), patch voltage clamp, NaV1.7. The following applies: HEK-293 cells stably expressing human NaV1.7 with β1 subunit, whole-cell patch clamp, held at −60 mV (inactivated state). It counts as cell-based. On the procedure:
NaV1.7 and NaV1.5 cDNAs (NM_002977 and AG 137587; SCN5A, respectively) were stably expressed in HEK-293 cells.
Control sodium currents were measured in 0.5% DMSO.
Series resistance compensation was applied (60-80%).

Where [1] appears, read: read-out: Ligand Binding Assay, competition with 100 pM [3H]compound, membranes with hNav1.7 and β1 subunit, room temperature, 18 h.

Where a name gives a salt, the structure may show the parent alone. Read-outs that look alike come from different tables or passages of the source.

hNav1.7, sequence (Q15858 whole entry): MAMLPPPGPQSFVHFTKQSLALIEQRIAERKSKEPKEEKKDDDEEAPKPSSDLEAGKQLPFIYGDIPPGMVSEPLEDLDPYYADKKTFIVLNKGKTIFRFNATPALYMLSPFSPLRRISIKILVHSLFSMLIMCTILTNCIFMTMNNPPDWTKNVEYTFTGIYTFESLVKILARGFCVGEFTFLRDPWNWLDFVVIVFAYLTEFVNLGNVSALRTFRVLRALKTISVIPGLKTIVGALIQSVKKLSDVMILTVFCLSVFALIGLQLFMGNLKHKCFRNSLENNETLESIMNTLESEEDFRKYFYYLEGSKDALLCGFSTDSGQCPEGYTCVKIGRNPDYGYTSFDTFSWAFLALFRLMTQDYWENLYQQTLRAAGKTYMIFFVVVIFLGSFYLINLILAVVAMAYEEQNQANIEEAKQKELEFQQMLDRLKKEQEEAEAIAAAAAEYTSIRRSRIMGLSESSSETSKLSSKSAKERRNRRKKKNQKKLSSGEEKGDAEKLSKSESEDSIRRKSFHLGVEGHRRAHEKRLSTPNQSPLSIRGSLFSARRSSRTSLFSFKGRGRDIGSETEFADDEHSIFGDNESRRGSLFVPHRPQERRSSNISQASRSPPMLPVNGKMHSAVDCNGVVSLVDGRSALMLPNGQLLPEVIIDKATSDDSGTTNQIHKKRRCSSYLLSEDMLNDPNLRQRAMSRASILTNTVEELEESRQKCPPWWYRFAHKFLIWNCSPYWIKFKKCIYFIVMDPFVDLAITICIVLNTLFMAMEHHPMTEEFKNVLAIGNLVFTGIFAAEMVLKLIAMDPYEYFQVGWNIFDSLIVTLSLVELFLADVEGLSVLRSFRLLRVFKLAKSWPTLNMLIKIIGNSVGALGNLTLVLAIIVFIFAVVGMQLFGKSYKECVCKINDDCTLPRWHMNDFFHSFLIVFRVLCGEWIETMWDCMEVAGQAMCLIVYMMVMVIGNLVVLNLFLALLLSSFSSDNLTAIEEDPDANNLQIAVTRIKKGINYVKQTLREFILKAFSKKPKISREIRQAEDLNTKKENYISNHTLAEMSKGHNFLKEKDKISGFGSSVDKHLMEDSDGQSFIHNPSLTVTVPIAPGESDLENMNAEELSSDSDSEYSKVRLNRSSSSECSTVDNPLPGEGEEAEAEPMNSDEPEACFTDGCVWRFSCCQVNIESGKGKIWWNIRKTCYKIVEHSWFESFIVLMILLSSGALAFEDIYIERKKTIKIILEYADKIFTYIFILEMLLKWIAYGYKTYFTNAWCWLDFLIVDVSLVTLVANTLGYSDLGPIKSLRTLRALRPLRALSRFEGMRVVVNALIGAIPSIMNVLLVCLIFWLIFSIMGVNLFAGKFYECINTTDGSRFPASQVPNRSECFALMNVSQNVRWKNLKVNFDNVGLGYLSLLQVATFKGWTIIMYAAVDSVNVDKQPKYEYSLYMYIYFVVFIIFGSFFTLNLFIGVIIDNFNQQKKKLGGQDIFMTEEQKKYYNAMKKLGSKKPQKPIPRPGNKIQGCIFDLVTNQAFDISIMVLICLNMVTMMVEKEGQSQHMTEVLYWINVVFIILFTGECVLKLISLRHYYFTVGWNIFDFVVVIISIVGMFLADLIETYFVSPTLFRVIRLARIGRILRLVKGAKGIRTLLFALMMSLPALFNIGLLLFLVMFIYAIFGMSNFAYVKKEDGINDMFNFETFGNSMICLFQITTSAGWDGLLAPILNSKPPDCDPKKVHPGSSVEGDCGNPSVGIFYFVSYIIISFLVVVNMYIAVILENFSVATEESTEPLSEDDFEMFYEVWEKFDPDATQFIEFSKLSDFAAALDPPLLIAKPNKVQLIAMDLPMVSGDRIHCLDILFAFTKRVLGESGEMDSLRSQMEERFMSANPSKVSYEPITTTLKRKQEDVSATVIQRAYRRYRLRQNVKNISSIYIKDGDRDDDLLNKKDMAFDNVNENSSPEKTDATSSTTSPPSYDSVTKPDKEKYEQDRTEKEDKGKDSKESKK
hNav1.7, sequence (Q07699 19-218 partner): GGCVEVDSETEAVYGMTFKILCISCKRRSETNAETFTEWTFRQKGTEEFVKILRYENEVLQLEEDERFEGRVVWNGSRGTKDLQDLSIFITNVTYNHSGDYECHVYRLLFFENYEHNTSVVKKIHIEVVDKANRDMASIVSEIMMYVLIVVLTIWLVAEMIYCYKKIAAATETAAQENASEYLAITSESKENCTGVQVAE
NaV1.7, sequence (Q15858 other isoform, or with tags, fused parts or gaps): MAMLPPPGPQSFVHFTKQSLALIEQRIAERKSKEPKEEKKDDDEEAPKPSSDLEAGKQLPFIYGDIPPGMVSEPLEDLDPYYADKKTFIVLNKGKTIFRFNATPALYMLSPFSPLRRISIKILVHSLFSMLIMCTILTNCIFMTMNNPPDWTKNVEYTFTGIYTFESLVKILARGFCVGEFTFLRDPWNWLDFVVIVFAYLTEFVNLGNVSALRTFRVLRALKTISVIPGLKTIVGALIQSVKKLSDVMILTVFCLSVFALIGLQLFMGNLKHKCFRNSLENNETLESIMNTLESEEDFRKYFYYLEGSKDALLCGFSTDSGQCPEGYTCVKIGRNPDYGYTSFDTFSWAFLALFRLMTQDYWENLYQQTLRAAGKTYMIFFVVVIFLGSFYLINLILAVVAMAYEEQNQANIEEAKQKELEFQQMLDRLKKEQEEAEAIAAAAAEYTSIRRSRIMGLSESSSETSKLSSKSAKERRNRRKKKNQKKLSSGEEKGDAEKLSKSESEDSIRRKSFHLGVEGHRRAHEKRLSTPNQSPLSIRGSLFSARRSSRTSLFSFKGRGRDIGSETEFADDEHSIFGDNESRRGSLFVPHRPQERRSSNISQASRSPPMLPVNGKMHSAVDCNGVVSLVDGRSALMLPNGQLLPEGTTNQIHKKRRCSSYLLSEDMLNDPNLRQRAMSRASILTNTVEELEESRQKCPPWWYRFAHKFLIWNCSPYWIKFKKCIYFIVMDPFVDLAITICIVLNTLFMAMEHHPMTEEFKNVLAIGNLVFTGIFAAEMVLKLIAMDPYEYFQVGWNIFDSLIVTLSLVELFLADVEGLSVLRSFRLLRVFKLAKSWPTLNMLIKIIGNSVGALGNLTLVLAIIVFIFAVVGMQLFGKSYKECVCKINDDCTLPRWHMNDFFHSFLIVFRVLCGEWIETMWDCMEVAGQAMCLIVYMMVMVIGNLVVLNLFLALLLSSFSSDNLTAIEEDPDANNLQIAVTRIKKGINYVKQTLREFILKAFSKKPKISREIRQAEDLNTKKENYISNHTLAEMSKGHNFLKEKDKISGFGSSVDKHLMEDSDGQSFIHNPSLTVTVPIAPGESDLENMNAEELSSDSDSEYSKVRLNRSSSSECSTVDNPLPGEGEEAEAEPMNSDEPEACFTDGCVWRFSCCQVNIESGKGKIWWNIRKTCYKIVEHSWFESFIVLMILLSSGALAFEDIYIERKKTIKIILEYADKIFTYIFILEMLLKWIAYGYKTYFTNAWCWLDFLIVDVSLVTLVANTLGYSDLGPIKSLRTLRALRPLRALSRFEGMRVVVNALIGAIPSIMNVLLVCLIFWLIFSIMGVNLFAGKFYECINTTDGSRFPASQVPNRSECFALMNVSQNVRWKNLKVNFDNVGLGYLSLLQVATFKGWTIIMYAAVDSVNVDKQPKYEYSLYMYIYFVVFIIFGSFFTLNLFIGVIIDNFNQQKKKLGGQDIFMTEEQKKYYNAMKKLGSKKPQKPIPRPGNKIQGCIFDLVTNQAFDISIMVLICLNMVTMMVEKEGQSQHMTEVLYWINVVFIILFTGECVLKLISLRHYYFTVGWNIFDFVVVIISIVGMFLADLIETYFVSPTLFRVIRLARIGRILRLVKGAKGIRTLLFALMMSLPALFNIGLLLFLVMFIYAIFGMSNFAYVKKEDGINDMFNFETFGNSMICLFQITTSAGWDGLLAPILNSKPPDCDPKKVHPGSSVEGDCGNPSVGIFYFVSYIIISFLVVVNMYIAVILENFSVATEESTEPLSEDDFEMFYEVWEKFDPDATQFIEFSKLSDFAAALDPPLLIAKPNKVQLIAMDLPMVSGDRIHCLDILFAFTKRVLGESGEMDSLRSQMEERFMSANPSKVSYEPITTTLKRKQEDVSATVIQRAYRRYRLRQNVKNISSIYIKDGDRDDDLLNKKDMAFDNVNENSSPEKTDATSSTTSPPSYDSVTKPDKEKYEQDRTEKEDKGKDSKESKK
NaV1.7, sequence (Q07699 19-218 partner): as the sequence (Q07699 19-218 partner) above

As to `C[C@@H](c1cc(Cl)cc(Cl)c1)N1CCC(COc2cc(F)c(C(=O)NS(=O)(=O)C3CC3)cc2C2CC2)CC1` (single isomer, unassigned) [Example 270], the IC50 on hNav1.7 (setting [1]) amounted to 5 nM; against NaV1.7, 5.8 nM.

In the case of `C[C@H](c1cc(Cl)cc(Cl)c1)N1CCC[C@H](COc2cc(F)c(C(=O)NS(C)(=O)=O)cc2C2CC2)C1` (single isomer, unassigned) [Example 337, trifluoroacetic acid salt], the IC50 on hNav1.7 (setting [1]) worked out at 11.1 nM. Same read-out and setting: with `C[C@@H](c1cc(Cl)cc(Cl)c1)N1CCC[C@H](COc2cc(F)c(C(=O)NS(C)(=O)=O)cc2C2CC2)C1` (single isomer, unassigned) [Example 338, trifluoroacetic acid salt] the figure was 7.4 nM; with `C[C@@H]1CC[C@@H](COc2cc(F)c(C(=O)NS(C)(=O)=O)cc2C2CC2)CN1[C@@H](C)c1cc(Cl)cc(Cl)c1` (single isomer, unassigned) [Example 342, trifluoroacetic acid salt], 5.7 nM; with `O=C(NS(=O)(=O)C1CC1)c1cc(Cl)c(O[C@@H]2CCCN(Cc3ccc(F)cc3Cl)C2)cc1F` [Example 39, (R)-5-chloro-4-((1-(2-chloro-4-fluorobenzyl)piperidin-3-yl)oxy)-N-(cyclopropylsulfonyl)-2-fluorobenzamide, trifluoroacetic acid salt], 6.8 nM. Regarding `C[C@@H](c1cc(Cl)cc(Cl)c1)N1CCC[C@@H](Oc2cc(F)c(C(=O)NS(C)(=O)=O)cc2C2CC2)C1` [Example 50], on hNav1.7 (setting [1]), the IC50 worked out at 1.9 nM.

`CS(=O)(=O)NC(=O)c1cc(C2CC2)c(OCC2CCN(Cc3cccc(Cl)c3)CC2)cc1F` [Example 92, 4-((1-(3-Chlorobenzyl)piperidin-4-yl)methoxy)-5-cyclopropyl-2-fluoro-N-(methylsulfonyl)benzamide]: on hNav1.7 (setting [1]), the IC50 was determined as 30.5 nM. Consider `CS(=O)(=O)NC(=O)c1cc(C2CC2)c(OCC2CCN(S(=O)(=O)C3COC3)CC2)cc1F` [Example 392, 5-cyclopropyl-2-fluoro-N-(methylsulfonyl)-4-((1-(oxetan-3-ylsulfonyl)piperidin-4-yl)methoxy)benzamide], for which the IC50 on hNav1.7 (setting [1]) was 2060 nM.

`O=C(NS(=O)(=O)C1CC1)c1cc(C2CC2)c(CN2CCC(Oc3ccc(C(F)(F)F)cn3)CC2)cc1F` [Example 477, 5-cyclopropyl-N-(cyclopropylsulfonyl)-2-fluoro-4-((4-((5-(trifluoromethyl)pyridin-2-yl)oxy)piperidin-1-yl)methyl)benzamide, trifluoroacetic acid salt]: the IC50 on hNav1.7 (setting [1]) was found to be 14.2 nM. The compound `CS(=O)(=O)NC(=O)c1cc(C2CC2)c(CN2CCN(S(=O)(=O)c3cc(Cl)cc(Cl)c3)CC2)cc1F` [Example 526, 5-cyclopropyl-4-((4-((3,5-dichlorophenyl)sulfonyl)piperazin-1-yl)methyl)-2-fluoro-N-(methylsulfonyl)benzamide, trifluoroacetic acid salt] had an IC50 at hNav1.7 of 20.2 nM. As for “(R)-5-cyclopropyl-4-((1-(3,5-dichlorobenzyl)-2-oxopiperidin-4-yl)methoxy)-2-fluoro-N-(methylsulfonyl)benzamide [Example 234]”, the IC50 on hNav1.7 (setting [1]) stood at 170 nM. For the compound “(S)-5-cyclopropyl-4-((1-(1-(3,5-dichlorophenyl)ethyl)-4-fluoropiperidin-4-yl)methoxy)-2-fluoro-N-(methylsulfonyl)benzamide, trifluoroacetic acid salt [Example 349]”, the IC50 on hNav1.7 (setting [1]) was 4 nM.

Turning to “(S)-5-cyclopropyl-N-(cyclopropylsulfonyl)-4-((1-(1-(3,5-dichlorophenyl)ethyl)-4-fluoropiperidin-4-yl)methoxy)-2-fluorobenzamide [Example 350]”, the IC50 on hNav1.7 (setting [1]) came to 4.5 nM.

(Values after patent US9694002B2, “Substituted benzamides and methods of use thereof” (GENENTECH, INC., priority 2013, dated 2017).)
